Conditions: Liquid, Closed cell (Static) method

C=C(F)C(F)(F)F [2,3,3,3-tetrafluoro-1-propene]
Conditions | vapor or sublimation pressure [kPa]
243.15 K | 99.4
248.15 K | 123.2
253.15 K | 151.4
258.15 K | 184.2
263.15 K | 222.4
268.15 K | 266.9
273.15 K | 317.2
278.15 K | 374.4
283.15 K | 438.5
288.15 K | 511.9
293.15 K | 591.7
